# Assay results taken from publication PMC4158172 (European Journal of Clinical Pharmacology, 2014).
# Read-outs that look alike come from different tables or passages of the source.
# Tests used:
# [1] = EFV plasma pharmacokinetics when co-administered with DTG, by CYP2B6 genotype; details: for AUC / Cmax / concentration at 24 h / Tmax / half-life: human; for AUC: AUC(0–τ); for Cmax: C max; for concentration at 24 h: C τ; for Tmax: T max; for half-life: t½
# Experimental: This was a phase I, open-label, single-sequence, two-period, steady-state study. Subjects received DTG at a dose of 50 mg (two 25 mg tablets) every 24 hours (q24h) for 5 days (period 1), and then the combination of morning DTG 50 mg and evening EFV 600 mg q24h was given for 14 days (period 2). There was no washout between treatment periods. All doses were administered in the fasting state. Serial PK plasma samples were collected after each period for DTG, and samples after period 2 were also collected for EFV. The metabolic profile of DTG was evaluated in plasma and urine using pooled samples for each subject to assist in establishing the mechanism of any potential drug interaction (see Supplementary Material).
# Dolutegravir and EFV were measured in plasma samples using validated methods, which consisted of extraction from plasma by protein precipitation with acetonitrile containing [^15N^2H7]dolutegravir or [^2H4]-efavirenz as the internal standards, respectively. The plasma extracts were injected onto a 2.1 × 50 mm 3.5-micron XBridge™ C18 column (Waters Associates, Milford, MA, USA). Dolutegravir was eluted with a mobile phase consisting of 40 % acetonitrile in aqueous 0.1 % formic acid, and EFV was eluted with a mobile phase consisting of acetonitrile/0.1 % formic acid (65 % v/v) in a 5-mM ammonium acetate buffer containing 0.1 % acetic acid (35 % v/v). The eluates were detected by using a Sciex API 4000™ (AB Sciex, Framingham, MA, USA) equipped with a TurboIonSpray® ionisation source with multiple reaction monitoring (DTG positive ion mode m/z 420 > 277; internal standard m/z 428 > 277; EFV negative ion mode m/z 314 > 243; internal standard m/z 318 > 247). Data acquisition and processing were performed with Analyst 1.4.2 software (AB Sciex), and linear regression analysis calculations were performed using the Study Management System, SMS™ 2000 v.2.2 (GlaxoSmithKline, Research Triangle Park, NC, USA). The calibration range for DTG was 0.020 to 20 μg/mL and for EFV was 0.10 to 20 μg/mL. Quality control samples prepared separately at three concentrations were stored with study samples and analysed with each batch of samples against separately prepared calibration standards.
# A non-compartmental PK analysis of the concentration-time data was performed with WinNonlin (version 5.2, Pharsight Corporation, Mountain View, CA, USA). Plasma PK parameters for both DTG and EFV were calculated using actual recorded times for each treatment. Parameters that were determined included AUC from time zero to the end of the dosage interval (AUC(0–τ)), maximum observed plasma concentration (C max), the time of maximum observed plasma concentration (T max) and plasma concentration at the end of the dosing interval (C τ).
# A blood sample was taken from 9 of 12 subjects in the EFV study who gave consent for pharmacogenetic analysis, and genomic DNA was extracted. Twenty-three polymorphisms from five genes/gene regions previously implicated in EFV metabolism were genotyped (Table 1). Only polymorphisms possibly conferring reduced enzyme activity were investigated. Due to the small number of samples available, no statistical modelling was planned or performed. However, the probabilities for each possible experimental outcome, based on the distribution of polymorphism carrier status between cases and controls and an assumption of no genetic association, were calculated a priori.
# [2] = EFV product label, cited from earlier work
# [3] = design: method as in PMID 18769354; details: EVG 200 mg once daily with TPV/r 500/200 mg twice daily, healthy subjects; cited from earlier work
# [4] = Plasma metabolic profile of DTG (pooled plasma); assay type: in vivo, human; details: pooled plasma, both treatment groups
# Experimental: (§1) There was no washout between treatment periods. All doses were administered in the fasting state.
# (§2) Urine samples were collected at intervals of 0 to 12 hours and 12 to 24 hours after each treatment period. Individual urine pools were produced for each subject in a given treatment group by combining proportional volumes (% of total volume) from the 0- to 12-hours and 12- to 24-hours collections. Individual pooled human plasma samples were prepared for each subject and treatment group.
# Each pooled plasma sample was mixed with aqueous EDTA disodium salt solution (10 mg/mL) and subsequently extracted 3 times with methanol and acetonitrile. Pooled urine samples were lyophilised and the residue was reconstituted in water:methanol (90:10 v/v). Drug-related components in plasma extracts and urine samples were separated on a 100 × 4.6 mm 3.5-micron Symmetry C18 column (Waters Associates) at 40°C by a step-gradient elution method with a mobile phase composition of water:acetonitrile containing 0.1% ammonium acetate starting at 95:5 (v/v) and ending at 5:95 (v/v) over 50 minutes. The eluate was analysed by multistage mass spectrometry (MSn) using an LTQ Orbitrap™ Hybrid Mass Spectrometer with Xcalibur 2.07 software (Thermo Fisher Scientific, Bremen, Germany). […]
# [5] = Urinary metabolic profile of DTG (pooled urine); assay type: in vivo, human; details: pooled urine 0-24 h, n=12, mean (standard deviation)
# Experimental: as §1, §2
# Each pooled plasma sample was mixed with aqueous EDTA disodium salt solution (10 mg/mL) and subsequently extracted 3 times with methanol and acetonitrile. Pooled urine samples were lyophilised and the residue was reconstituted in water:methanol (90:10 v/v). Drug-related components in plasma extracts and urine samples were separated on a 100 × 4.6 mm 3.5-micron Symmetry C18 column (Waters Associates) at 40°C by a step-gradient elution method with a mobile phase composition of water:acetonitrile containing 0.1% ammonium acetate starting at 95:5 (v/v) and ending at 5:95 (v/v) over 50 minutes. The eluate was analysed by multistage mass spectrometry (MSn) using an LTQ Orbitrap™ Hybrid Mass Spectrometer with Xcalibur 2.07 software (Thermo Fisher Scientific, Bremen, Germany). Data-dependent scanning using an accurate mass list, consisting of all previously characterised metabolites, was used in addition to analysis of pre-dose samples to aid in the distinction of drug-related material from endogenous components.
# [6] = with TPV/r; cited from earlier work
# [7] = in vivo; cited from earlier work
# [8] = Safety evaluations, interaction study with TPV/r; assay type: in vivo, human
# Experimental: In both studies, safety evaluations [adverse event (AE) reporting, clinical chemistry laboratory tests, urinalysis, vital signs and electrocardiogram] were performed throughout the study. Given the known hepatotoxicity profile of TPV/r, more frequent monitoring of liver chemistries was performed in the TPV/r study, and conservative stopping criteria were employed such that any subject reaching a grade 2 increase in alanine aminotransferase (ALT) or aspartate aminotransferase (AST) was discontinued from the trial. Both trials were conducted as inpatient studies with subjects housed in the unit for the duration of the study. The studies were conducted in accordance with the principles of the Declaration of Helsinki. A written informed consent was obtained from all subjects, and both protocols were approved by the institutional review board of the study sites.
# CYP3A4/5 = details: in vivo, cited from earlier work
# [9] = in vivo, EFV with DTG, CYP2B6*1/*1 or *1/*6 subjects n=6, geometric mean (CV%)
# [10] = in vivo, EFV with DTG, CYP2B6*6/*6 subjects n=3, geometric mean (CV%)
# [11] = in vivo, EFV with DTG, all subjects n=12, geometric mean (CV%)
compound,measurement,setting,value
"O=C1Nc2ccc(Cl)cc2[C@@](C#CC2CC2)(C(F)(F)F)O1 [EFV, efavirenz]",C τ,"[1]; EFV with DTG, CYP2B6*1/*1 or *1/*6 subjects n=6, geometric mean (CV%)",1.45 (40) μg/mL
same,AUC,[1]; [9],55700 ng·h/mL
same,AUC,[1]; [10],174000 ng·h/mL
same,AUC,[1]; [11],84200 ng·h/mL
same,Cmax,"[1]; in vivo, EFV 600 mg q24h with DTG 50 mg, all subjects n=12, geometric mean (CV%)",6020 ng/mL
same,Cmax,[1]; [9],4520 ng/mL
same,Cmax,[1]; [10],9500 ng/mL
same,concentration at 24 h,[1]; [10],5850 ng/mL
same,concentration at 24 h,[1]; [11],2410 ng/mL
same,Tmax,"[1]; in vivo, EFV with DTG, CYP2B6*1/*1 or *1/*6 subjects n=6, median (range)",2.5 h
same,Tmax,"[1]; in vivo, EFV with DTG, CYP2B6*6/*6 subjects n=3, median (range)",2 h
same,Tmax,"[1]; in vivo, EFV with DTG, all subjects n=12, median (range)",2.5 h
same,half-life,[1]; [9],15.6 h
same,half-life,[1]; [10],39.1 h
same,half-life,[1]; [11],22.2 h
same,EFV exposures in CYP2B6*6 homozygous subjects relative to CYP2B6*1/*1 or *1/*6 carriers,[1]; in vivo,two- to fourfold higher
same,mean C max,[2],4070 ng/mL
same,Cmax,[2]; read-out: mean C max,12.9 µM
"COc1cc2c(cc1Cc1cccc(Cl)c1F)c(=O)c(C(=O)O)cn2[C@H](CO)C(C)C [EVG, Elvitegravir]",changes in PK,[3],No significant changes
C[C@@H]1CCO[C@H]2Cn3cc(C(=O)NCc4ccc(F)cc4F)c(=O)c(O[C@@H]4O[C@H](C(=O)O)[C@@H](O)[C@H](O)[C@H]4O)c3C(=O)N12 [M2],amount in plasma relative to DTG (mean),[4],< 2 % of DTG
same,% DTG,[5]; DTG 50 mg + EFV q24h,"1,633 (607) %"
same,% Total drug-related response,[5]; DTG 50 mg + EFV q24h,79.8 (9.3) %
same,% DTG,[5]; DTG 50 mg q24h,"1,188 (275) %"
same,% Total drug-related response,[5]; DTG 50 mg q24h,72.8 (10.9) %
C[C@@H]1CCO[C@H]2Cn3cc(C(=O)NC(O)c4ccc(F)cc4F)c(=O)c(O)c3C(=O)N12 (stereo partly shown) [M3],% DTG,[5]; DTG 50 mg + EFV q24h,38.8 (48.6) %
same,% Total drug-related response,[5]; DTG 50 mg + EFV q24h,1.9 (2.4) %
same,% DTG,[5]; DTG 50 mg q24h,51.9 (57.3) %
same,% Total drug-related response,[5]; DTG 50 mg q24h,2.9 (2.6) %
"Cc1nnc(C(=O)NC(C)(C)c2nc(C(=O)NCc3ccc(F)cc3)c(O)c(=O)n2C)o1 [RAL, raltegravir]",decrease of AUC(0–12),[6],24%
CC(C)CN(C[C@@H](O)[C@H](Cc1ccccc1)NC(=O)O[C@H]1CCOC1)S(=O)(=O)c1ccc(N)cc1 [amprenavir],decrease of Cmin,[7],56%
CC(C)(C)NC(=O)[C@@H]1C[C@@H]2CCCC[C@@H]2CN1C[C@@H](O)[C@H](Cc1ccccc1)NC(=O)[C@H](CC(N)=O)NC(=O)c1ccc2ccccc2n1 [saquinavir],decrease of Cmin,[7],80%
tipranavir/ritonavir [TPV/r],subjects reporting nausea,[8]; healthy subjects n=18,22%
same,subjects reporting vomiting,[8]; healthy subjects n=18,11%
same,subjects with grade 2 increases in AST,"[8]; n=18, began during TPV/r alone (period 2)",Three
same,subjects with grade 2 increases in ALT leading to discontinuation,"[8]; n=18, began during TPV/r alone (period 2), considered related to TPV/r",Four
same,effect on CYP3A4/5,CYP3A4/5; after a single dose,moderately inhibits
same,effect on CYP3A4/5,CYP3A4/5; after repeated dosing,induces
